For orientation: chromatographic logP means a lipophilicity value derived from retention on a column.

Data set [1] can be described thus: Critical micelle concentration by surface tension measurement. In kind it is physicochemical. The text has this:
The critical micelle concentration may be determined by measuring the surface tension. The surface tension may be measured using a surface tensiometer CBVP-A3 (Kyowa Interface Science Co., Ltd.), for example.
The critical micelle concentration may be determined in accordance with “Environmental Science & Technology (2011)”, 45(19), 8120-8128 and the literature cited therein.

Data set [2] can be described thus: Log POW (1-octanol/water partition coefficient) by HPLC calibration.
Method: Log POW is a 1-octanol/water partition coefficient which is represented by Log P (wherein P is the ratio between the concentration of the fluorosurfactant in octanol and that in water in a phase-separated octanol/water (1:1) liquid mixture containing the fluorosurfactant).
Log POW is determined as follows. Specifically, HPLC is performed on standard substances (heptanoic acid, octanoic acid, nonanoic acid, and decanoic acid) each having a known octanol/water partition coefficient using TOSOH ODS-120T (φ4.6 mm×250 mm) as a column and acetonitrile/0.6 mass % HClO4 aqueous solution (=1/1 (vol/vol %)) as an eluent at a flow rate of 1.0 ml/min, a sample amount of 300 μL, and a column temperature of 40° C.; with a detection light of UV 210 nm. For each standard substance, a calibration curve is drawn with respect to the elution time and the known octanol/water partition coefficient. Based on this calibration curve, Log POW is calculated from the elution time of the sample liquid in HPLC.

Structures are written as SMILES.

Compound `N.O=C(O)C(F)(OC(F)(F)C(F)(F)C(F)(F)F)C(F)(F)F` (centres unmarked) [C3F7OCF(CF3)COONH4] gave a critical micelle concentration in data set [1] of 48 g/L.

Take `N.O=C(O)C(F)(F)C(F)(F)C(F)(F)C(F)(F)C(F)(F)F` [CF3(CF2)4COONH4, ammonium perfluorohexanoate]: in data set [1], the critical micelle concentration was determined as 56 g/L. The chromatographic logP in data set [2] was determined as 2.4. `N.O=C(O)C(F)(OC(F)(F)C(F)(OC(F)(F)F)C(F)(F)F)C(F)(F)F` (centres unmarked) [CF3OCF(CF3)CF2OCF(CF3)COONH4, ammonium 2,3,3,3-tetrafluoro-2-[1,1,2,3,3,3-hexafluoro-2-(trifluoromethoxy)propoxy]-propanoate] returned a critical micelle concentration in data set [1] of 22 g/L. The compound further came in with a chromatographic logP in data set [2] of 3.4. Regarding `N.O=C(O)C(F)(F)C(F)(F)C(F)(F)C(F)(F)F` [CF3(CF2)3COONH4, ammonium perfluoropentanoate], the critical micelle concentration in data set [1] stood at 82 g/L. The chromatographic logP in data set [2] was found to be 2. The compound `O=S(=O)(O)CCC(F)(F)C(F)(F)C(F)(F)C(F)(F)C(F)(F)C(F)(F)F` [C6F13(CH2)2SO3H] had a critical micelle concentration in data set [1] of 1 g/L.

Values taken from patent US20170096504A1, “METHOD FOR PRODUCING FLUOROPOLYMER AQUEOUS DISPERSION LIQUID” (DAIKIN INDUSTRIES, LTD., priority 2014, published 2017).
